This assay relates to Primary mouse hippocampal neurons. As to the kind of experiment: Excitotoxic (glutamate/NMDA-induced) cell death in primary neuronal cultures, protection index. The class given is cell-based. The note with it: for IC50: Mus musculus, Hippocampal neuron, excitotoxic cell death in primary neuronal cultures. As to the method: Primary mouse hippocampal neurons were prepared as previously described (Bading & Greenberg, Science, 1991; 253: 912-914; Zhang et al, Neuron, 2007, 53: 549-562) and maintained in Neurobasal-A medium supplemented with 2% B27, 5 mM L-Glutamax, and 0.5% Penicillin/Streptomycin until challenged with NMDA on days in vitro (DIV) 10. Glutamate-induced cell death was analyzed in a real-time manner by monitoring nuclear localized mCherry with IncuCyte® S3 Live-Cell Analysis System (Sartorius AG, Germany). Primary neurons plated in 24 well plates were infected with rAAV-hSyn-mCherry on DIV3 and challenged with 1 μM or 20 μM glutamate on DIV10. All compounds were added to the culture 30 min prior to glutamate/NMDA insult. Images were acquired following the glutamate application for 24 h with a 2 h interval, where 9-16 images were obtained via a 20×objective for each condition at each time point. Cell deaths were quantified by analyzing the existence of nuclear localized mCheery via the Basic Analyzer with Incucyte® 2021 software, size and average intensity were used as exclusion criteria.
In order to evaluate the protective effects of various compounds, a quantification method was developed to determine each compound's protection index. The protection index (from 0.0 to 10.0) was calculated by the area above the curve (AAC) during a 24 h excitotoxic stimuli, where the cell survival was normalized to the 0 h (FIG. 2), following the equation: […]
Where AAC represents for each compound, AACbasal represents for the basal condition without excitotoxic insult, AACVeh represents for the vehicle control with excitotoxic insult. Based on the equation, vehicle (DMSO) has a protection index at 0.0 and compound P401 of WO 2020/079244 has a protection index at 6.0 (at 10 μM).
The inventors also performed experiments with Group A compounds at lower concentration in a 3-fold dilution matter ([…]: 3.0, 1.0, 0.3, 0.1, 0.03) and were able to achieve a similar protection effect as 10 μM compound P401, but at a lower concentration.

[1] abbreviates: second subset, protection index from area above curve over 24 h glutamate/NMDA insult, compounds added 30 min before, 10 μM, Group A also at lower concentrations.
Where [2] appears, read: first subset, protection index from area above curve over 24 h glutamate/NMDA insult, compounds added 30 min before, 10 μM, Group A also at lower concentrations.
The mark [3] stands for this setting: third subset, A++++ or above correlates with IC50, A++ and A+++ as defined in the source.

Where a name gives a salt, the structure may show the parent alone.

One may read the IC50 as the point on the concentration scale where inhibition reaches its midpoint. Low values mean higher potency, high ones lower potency.

With `CC(c1cccc(Cl)c1F)N(CCN)C1CC1` (single isomer, unassigned; (+)) [Compound 220A, (+)-N1-(1-(3-chloro-2-fluorophenyl)ethyl)-N1-cyclopropylethane-1,2-diamine], under setting [1], the “Biological Activity Rating” value was “A++ (With a protection index between 5.0 to 7.0, provides a comparable protection to compound P401 (10 μM) at 1.0 μM.)”.

As to `C=CCN(CCN)Cc1cccc(Cl)c1` [Compound 136], the “Biological Activity Rating” value under setting [2] was “A (With a protection index over 7.0, provides a significantly better protection over compound P401 (10 μM) at 10 μM.)”.

For the compound `CC(c1cccc(Cl)c1F)N(CCN)C1CCCC1` (stereo not shown) [Compound 184, N1-(1-(3-chloro-2-fluorophenyl)ethyl)-N1-cyclopentylethane-1,2-diamine dihydrochloride], under setting [1], the “Biological Activity Rating” value is recorded as “A (With a protection index over 7.0, provides a significantly better protection over compound P401 (10 μM) at 10 μM.)”.

As for `NCCN(Cc1cccc(Cl)c1)C1CCCCC1` [Compound 124], under setting [2], the “Biological Activity Rating” value is “B (With a protection index between 5.0 to 7.0, provides a comparable protection to compound P401 (10 μM) at 10 μM.)”.

Regarding `CCN(CCN)[C@@H](C)c1cccc(Cl)c1` [Compound 177, (S)—N1-(1-(3-chlorophenyl)ethyl)-N1-ethylethane-1,2-diamine dihydrochloride], the “Biological Activity Rating” value under setting [1] is listed as “A (With a protection index over 7.0, provides a significantly better protection over compound P401 (10 μM) at 10 μM.)”.

With `CCN(CCN)Cc1cc(Cl)ccc1F` [Compound 95], the “Biological Activity Rating” value under setting [2] was “B (With a protection index between 5.0 to 7.0, provides a comparable protection to compound P401 (10 μM) at 10 μM.)”.

As to `CC(C)C(c1cccc(Cl)c1F)N(CCN)CC(F)F` (stereo not shown) [Compound 282, N′-[1-(3-chloro-2-fluoro-phenyl)-2-methyl-propyl]-N′-(2,2-difluoroethyl)ethane-1,2-diamine TFA salt], under “third subset”, the IC50 amounted to 51 nM.

As to `CC(c1c(F)cccc1Cl)N(CCN)C1CC1` (stereo not shown) [Compound 186], inhibition (third subset) was half-maximal at 800 nM (IC50). Further, the “Biological Activity Rating” value under setting [3] is listed as “A+++”.

For the setting “third subset”, `NCCN(Cc1cccc(Br)c1F)C1CC1` [Compound 219B] came in with an IC50 of 1450 nM. In addition, the “Biological Activity Rating” value under setting [3] is on record as “A++”.

As to `NCCN(Cc1cccc(Cl)c1)CC1CC1` [Compound 134], the “Biological Activity Rating” value under setting [2] was “B (With a protection index between 5.0 to 7.0, provides a comparable protection to compound P401 (10 μM) at 10 μM.)”.

Compound `CC(C)(F)C(c1cccc(C#N)c1F)N(CCN)C1CC1` (stereo not shown) [Compound 287, 3-[1-[2-aminoethyl(cyclopropyl)amino]-2-fluoro-2-methyl-propyl]-2-fluoro-benzonitrile TFA salt] registered a concentration for half-maximal inhibition (IC50) (third subset) of 3 nM.

Take `CC(c1scc(C#N)c1F)N(CCN)C1CC1` (stereo not shown) [Compound 297, 5-[1-[2-aminoethyl(cyclopropyl)amino]ethyl]-4-fluoro-thiophene-3-carbonitrile TFA salt]: inhibition (third subset) was half-maximal at 974 nM (IC50). The “Biological Activity Rating” value under setting [3] is “A+++”.

Regarding `CC(c1c(Cl)ccc(Cl)c1F)N(CCN)C1CC1` (stereo not shown) [Compound 242], it took 300 nM to reach half-maximal inhibition (third subset) (IC50). The “Biological Activity Rating” value under setting [3] is on record as “A+++”.

For the setting “third subset”, `NCCN(C1CC1)C(CC(F)(F)F)c1cccc(Cl)c1F` (stereo not shown) [Compound 247, N^1-(1-(3-chloro-2-fluorophenyl)-3,3,3-trifluoropropyl)-N^1-cyclopropylethane-1,2-diamine hydrochloride] had a concentration for half-maximal inhibition (IC50) of 10 nM.

On to `CC(c1cccc(Cl)c1F)N(CCN)C1CC1` (single isomer, unassigned; (-)) [Compound 220B, (−)-N1-(1-(3-chloro-2-fluorophenyl)ethyl)-N1-cyclopropylethane-1,2-diamine], for which, under setting [1], the “Biological Activity Rating” value is on record as “A++++ (With a protection index between 5.0 to 7.0, provides a comparable protection to compound P401 (10 μM) at 0.1 μM.)”.

Take `C=CCC(=O)N(CCN)Cc1cccc(Cl)c1` [Compound 137, N-(2-aminoethyl)-N-[(3-chlorophenyl)methyl]but-3-enamide hydrochloride]: the “Biological Activity Rating” value under setting [2] is recorded as “A (With a protection index over 7.0, provides a significantly better protection over compound P401 (10 μM) at 10 μM.)”.

`NCCN(Cc1cccc(Cl)c1F)CC(F)(F)F` [Compound 119, N1-(3-chloro-2-fluorobenzyl)-N1-(2,2,2-trifluoroethyl)ethane-1,2-diamine]: the “Biological Activity Rating” value under setting [2] is “A (With a protection index over 7.0, provides a significantly better protection over compound P401 (10 μM) at 10 μM.)”.

Regarding `CSCCN(CCN)C(C)c1cccc(Cl)c1F` (stereo not shown) [Compound 169, N1-(2-(methylthio)ethyl)-N1-(1-(3-chloro-2-fluorophenyl)ethyl) ethane-1,2-diamine], the “Biological Activity Rating” value under setting [1] was “B (With a protection index between 5.0 to 7.0, provides a comparable protection to compound P401 (10 μM) at 10 μM.)”.

In the case of `C=CCN(CCN)C(C)c1cccc(Cl)c1F` (stereo not shown) [Compound 172, N1-allyl-N1-(1-(3-chloro-2-fluorophenyl)ethyl)ethane-1,2-diamine hydrochloride], the “Biological Activity Rating” value under setting [1] is recorded as “A++ (With a protection index between 5.0 to 7.0, provides a comparable protection to compound P401 (10 μM) at 1.0 μM.)”.

Where the note is “third subset”, `C#Cc1cccc(C(C)N(CCN)C2CC2)c1F` (stereo not shown) [Compound 295, N′-cyclopropyl-N′-[1-(3-ethynyl-2-fluoro-phenyl)ethyl]ethane-1,2-diamine TFA salt] gave an IC50 of 32 nM.

For the compound `CC(c1cc(F)cc(F)c1Cl)N(CCN)C1CC1` (stereo not shown) [Compound 188, N′-[1-(2-chloro-3,5-difluoro-phenyl)ethyl]-N′-cyclopropyl-ethane-1,2-diamine hydrochloride], the “Biological Activity Rating” value under setting [1] is on record as “A++ (With a protection index between 5.0 to 7.0, provides a comparable protection to compound P401 (10 μM) at 1.0 μM.)”.

In the case of `CC(c1cc(Cl)cs1)N(CCN)C1CC1` (stereo not shown) [Compound 279, N′-[1-(4-chloro-2-thienyl)ethyl]-N′-cyclopropyl-ethane-1,2-diamine hydrochloride], the IC50 (third subset) worked out at 230 nM.

Regarding `CCN(CCN)Cc1cc(F)cc(Cl)c1` [Compound 94], under setting [2], the “Biological Activity Rating” value is listed as “B (With a protection index between 5.0 to 7.0, provides a comparable protection to compound P401 (10 μM) at 10 μM.)”.

Take `N#Cc1cccc(C(N(CCN)C2CC2)C(F)(F)F)c1F` (stereo not shown) [Compound 261, 3-[1-[2-aminoethyl(cyclopropyl)amino]-2,2,2-trifluoro-ethyl]-2-fluoro-benzonitrile hydrochloride]: for the setting “third subset”, 109 nM corresponded to half-maximal inhibition (IC50). That is a sub-micromolar value.

`CC(C)C(c1cccc(Cl)c1F)N(CCN)C1CC1` (stereo not shown) [Compound 225] registered an IC50 (third subset) of 5 nM. This IC50 lies about 22-fold lower than the previous one.

Regarding `CCN(CCN)[C@H](C)c1cccc(Cl)c1` [Compound 176, (R)—N1-(1-(3-chlorophenyl)ethyl)-N1-ethylethane-1,2-diamine dihydrochloride], the “Biological Activity Rating” value under setting [1] is “A (With a protection index over 7.0, provides a significantly better protection over compound P401 (10 μM) at 10 μM.)”.

Where the note is “third subset”, `NCCN(C1CC1)C(c1cccc(Cl)c1F)C(F)F` (stereo not shown) [Compound 275, N1-(1-(3-chloro-2-fluorophenyl)-2,2-difluoroethyl)-N1-cyclopropylethane-1,2-diamine hydrochloride] displayed an IC50 of 468 nM. For the same compound, under setting [3], the “Biological Activity Rating” value is “A+++”.

Consider `CCC(c1cccc(Cl)c1F)N(CCN)C1CC(F)(F)C1` (stereo not shown) [Compound 248], for which the half-inhibitory concentration (IC50) (third subset) is 120 nM.

Compound `CCC(c1cccc(Br)c1F)N(CCN)C1CC1` (stereo not shown) [Compound 258] came in with an IC50 (third subset) of 13 nM.

For `N#Cc1cccc(CN(CCN)C2CC2)c1F` [Compound 219, 3-(((2-aminoethyl)(cyclopropyl)amino)methyl)-2-fluorobenzonitrile hydrochloride], for the setting “third subset”, the half-inhibitory concentration (IC50) was 480 nM. The “Biological Activity Rating” value under setting [3] is on record as “A+++”.

Consider `NCCN(C1CC1)C(c1cccc(Cl)c1F)C1CCC1` (stereo not shown) [Compound 267, N^1-((3-chloro-2-fluorophenyl)(cyclobutyl)methyl)-N^1-cyclopropylethane-1,2-diamine hydrochloride], for which inhibition (third subset) was half-maximal at 130 nM (IC50).

Consider `NCCN(Cc1cccc(Cl)c1)C1CCC1` [Compound 123, N1-(3-chlorobenzyl)-N1-cyclobutylethane-1,2-diamine hydrochloride], for which the “Biological Activity Rating” value under setting [2] was “B (With a protection index between 5.0 to 7.0, provides a comparable protection to compound P401 (10 μM) at 10 μM.)”.

Compound `CC(C)C(c1cccc(C#N)c1F)N(CCN)C1CC1` (stereo not shown) [Compound 264, 3-(1-((2-aminoethyl)(cyclopropyl)amino)-2-methylpropyl)-2-fluorobenzonitrile TFA salt] registered an IC50 (third subset) of 3 nM.

Compound `CCC(c1cccc(C#N)c1F)N(CCN)C1CC1` (stereo not shown) [Compound 257, 3-(1-((2-aminoethyl)(cyclopropyl)amino)propyl)-2-fluorobenzonitrile hydrochloride] gave an IC50 (third subset) of 11 nM.

The values above are taken from patent US20250339402A1, “EFFECTIVE MEANS TO MODULATE NMDA RECEPTOR-MEDIATED TOXICITY” (FUNDAMENTAL PHARMA GMBH, priority 2022, published 2025).
